Like-named read-outs stand apart in the source and are kept apart here.
Legend:
PPARγ = system: PPARγ; design: method as in Crosthwait et al. 2025; Sun et al. 2025; details: ref Crosthwait et al. 2025; Sun et al. 2025; cited from earlier work
[1] = 15 min
Procedure: The mixtures were adjusted to a final volume of 100 μL with acetonitrile (ACN). The reaction mix was incubated for 15 min at 30 °C and 1000 rpm on a Bioshake iQ orbital shaker from QInstruments (Jena, Germany). Additionally, a mixture without test compounds was prepared as a control. Subsequently, 10 μL of the reaction mixture was transferred into a conical dosing vial and evaporated under a nitrogen flow.
For chemical analysis, 10 μL of the reaction mixture was concentrated under vacuum (CentriVap, Labconco, Kansas City, MO, USA), diluted to 1 mg/L in ACN or ethyl acetate. The chemical analysis of the reaction mixtures was performed using liquid chromatography (LC) and gas chromatography (GC) coupled with various detection techniques, preferably Multiple Reaction Monitoring (MRM). Data acquisition and processing were carried out using the software MassHunter. Quantification was based on external calibrations.
The Cparent-Ratio quantifies the extent of oxidation of the parent compound after the abiotic CYP reaction. It was calculated as the ratio of the parent compound concentration after oxidation (C parent, after oxidation) to its concentration before oxidation (C parent, before oxidation) as shown in eq . […] 8 Cparent‐Ratio=Cparent,after oxidation/Cparent,before oxidation

ERα [2] = experiment: Literature ERα reporter gene assays (comparison); assay type: cell-based; details: for EC10, approx.: in M (unit assumed)
Procedure: S5.4: Comparison with literature data for ERα reporter gene assays
To improve data comparability with our own results we converted reported EC₅₀ to EC₁₀ by dividing by 9, which is the ratio for log-logistic concentration-response curves with a hillslope of 1 (Figure S9a). Additionally, REPBPA values were calculated to enable a more consistent evaluation. Methodological differences between studies must be considered, as Reiniger et al.24 used the YES assay, while Goksøyr et al.25 applied ERα from fish (Figure S9b).
Cyan symbols highlight the ER-UAS-bla GripTite (this study and Tox21GenBLA).
(1 picture or pasted object on this page, not shown here)

ERα [3] = details: cited from earlier work
Tox21 assays [4] = details: cited from earlier work
Tox21 assays [5] = experiment: Re-evaluated Tox21 data (Adamovsky et al.), REPBPA and SRbaseline; details: for SRbaseline: Specificity Ratio;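 on all read-outs here: published Tox21 results reanalysed with a revised model predicting baseline toxicity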
Source text: We also reanalyzed the Tox21 data of Adamovsky et al. with the updated baseline toxicity prediction model (Table S2).

[6] = Atlantic cod estrogen receptor, approximated from literature EC50, ref Goksøyr et al 2024
[7] = Atlantic cod estrogen receptor, ref Goksøyr et al 2024
[8] = approximated from literature EC50, ref Pelch et al 2019
[9] = approximated from literature EC50, ref Reiniger et Oehlmann 2024
[10] = approximated from literature values, ref Kojima et al 2019
[11] = relative estrogenic potency vs BPA, ref Kojima et al 2019
[12] = relative estrogenic potency vs BPA, ref Pelch et al 2019
[13] = relative estrogenic potency vs BPA, ref Reiniger et Oehlmann 2024
[14] = estrogen receptor from Atlantic cod (Gadus morhua), ref Goksøyr et al 2024
[15] = TOX21_AR_LUC_MDAKB2_Antagonist_0,5nM_R1881, re-evaluated Tox21 data, ref Adamovsky et al 2024
[16] = TOX21_CAR_Agonist, re-evaluated Tox21 data, ref Adamovsky et al 2024
[17] = TOX21_CAR_Antagonist, re-evaluated Tox21 data, ref Adamovsky et al 2024
[18] = TOX21_PPARg_BLA_antagonist_ratio, re-evaluated Tox21 data, ref Adamovsky et al 2024
[19] = Tox21BLA, ref Adamovsky et al. 2024
[20] = Tox21Luc, ref Adamovsky et al. 2024
[21] = TOX21_AR_LUC_MDAKB2_Antagonist_0,5nM_R1881, Relative Effect Potency
[22] = TOX21_AR_LUC_MDAKB2_Antagonist_0,5nM_R1881
[23] = TOX21_CAR_Agonist, Relative Effect Potency
[24] = TOX21_CAR_Antagonist, Relative Effect Potency
[25] = TOX21_PPARg_BLA_antagonist_ratio
[26] = ATG_NRF2_ARE_CIS_up, Relative Effect Potency

SMILES: O=S(=O)(c1ccc(O)cc1)c1ccccc1O [2,4-BPS, 2,4'-Dihydroxydiphenyl sulfone]
- PPARγ transactivation reported in the literature (PPARγ): No agonism was detected

SMILES: CC(C)CC(C)(c1ccc(O)cc1)c1ccc(O)cc1 [BP-MIBK, 4,4'-(1,3-Dimethylbutylidene)diphenol]
- % Loss [1]: 10%

SMILES: Oc1ccc(C(c2ccc(O)cc2)(C(F)(F)F)C(F)(F)F)cc1 [BPAF, 4,4'-(1,1,1,3,3,3-Hexafluoropropane-2,2-diyl)diphenol]
- % Loss [1]: -9%
- EC10, approx. (ERα [2]; [6]): ~2.56E-08
- REPBPA (ERα [2]; [7]): 8.26E+00
- EC10, approx. (ERα [2]; [8]): ~1.44E-08
- EC10, approx. (ERα [2]; [9]): ~4.82E-08
- EC10, approx. (ERα [2]; [10]): ~4.30E-08
- REPBPA (ERα [2]; [11]): 8.49E-01
- REPBPA (ERα [2]; [12]): 9.23E+00
- REPBPA (ERα [2]; [13]): 5.21E+00
- EC50 (ERα [3]; [14]): 230 nM
- EC50 (ERα [3]; ref Kojima et al 2019): 390 nM
- EC50 (ERα [3]; ref Pelch et al 2019): 130 nM
- Efficacy % (ERα [3]; ref Pelch et al 2019): 91.50%
- EC50 (ERα [3]; ref Reiniger et Oehlmann 2024): 434 nM
- Efficacy % (ERα [3]; ref Reiniger et Oehlmann 2024): 8.21E+01%
- REPBPA,ERα reported in the literature (ERα [3]; ref Text S5.4, Tables S2 and S7): 3–5
- EC10 (Tox21 assays [4]; [15]): 2.92e-06 M
- EC10 (Tox21 assays [4]; [16]): 5.35e-06 M
- EC10 (Tox21 assays [4]; [17]): 4.23e-07 M
- EC10 (Tox21 assays [4]; [18]): 5.75e-06 M
- EC10 (Tox21 assays [4]; [19]): 2.07E-07
- EC10 (Tox21 assays [4]; [20]): 1.10E-08
- PPARγ transactivation reported in the literature (PPARγ): No agonism was detected
- REPBPA (Tox21 assays [5]; [21]): 0.83
- SRbaseline (Tox21 assays [5]; [22]): 22.15
- REPBPA (Tox21 assays [5]; [23]): 0.26
- SRbaseline (Tox21 assays [5]; TOX21_CAR_Agonist): 12.10
- REPBPA (Tox21 assays [5]; [24]): 1.29
- SRbaseline (Tox21 assays [5]; TOX21_CAR_Antagonist): 153.1
- SRbaseline (Tox21 assays [5]; [25]): 11.28
- REPBPA (Tox21 assays [5]; [19]): 2.86E+00
- REPBPA (Tox21 assays [5]; [20]): 1.23E+00

SMILES: CC(c1ccccc1)(c1ccc(O)cc1)c1ccc(O)cc1 [BPAP, 4,4'-(1-Phenylethylidene)bisphenol]
- reduction of C parent after aCYP oxidation [1]: 25%
- EC10, approx. (ERα [2]; [9]): ~1.04E-07
- EC10, approx. (ERα [2]; [10]): ~1.45E-07
- REPBPA (ERα [2]; [11]): 2.52E-01
- EC50 (ERα [3]; ref Kojima et al 2019): 1900 nM
- Efficacy % (ERα [3]; ref Pelch et al 2019): 45.40%
- EC50 (ERα [3]; ref Reiniger et Oehlmann 2024): 932 nM
- Efficacy % (ERα [3]; ref Reiniger et Oehlmann 2024): 1.06E+02%
- EC10 (Tox21 assays [4]; [17]): 1.11e-06 M
- REPBPA (Tox21 assays [5]; [26]): 3.88
- SRbaseline (Tox21 assays [5]; ATG_NRF2_ARE_CIS_up): 15.59
- SRbaseline (Tox21 assays [5]; TOX21_CAR_Antagonist): 27.45

SMILES: CCC(C)(c1ccc(O)cc1)c1ccc(O)cc1 [BPB, 4,4'-(Butane-2,2-diyl)diphenol]
- % Loss [1]: 12%
- Cparent-Ratio Mean [1]: 0.88
- Cparent-Ratio Rep.1 [1]: 0.80
- Cparent-Ratio Rep.1 % [1]: 79.66%
- Cparent-Ratio Rep.2 [1]: 0.96
- Cparent-Ratio Rep.2 % [1]: 96.18%
- EC10, approx. (ERα [2]; [6]): ~1.78E-07
- REPBPA (ERα [2]; [7]): 1.19E+00
- EC10, approx. (ERα [2]; [8]): ~3.56E-08
- EC10, approx. (ERα [2]; [9]): ~1.87E-07
- EC10, approx. (ERα [2]; [10]): ~1.15E-08
- REPBPA (ERα [2]; [11]): 3.17E+00
- REPBPA (ERα [2]; [12]): 3.75E+00
- REPBPA (ERα [2]; [13]): 1.35E+00
- EC50 (ERα [3]; [14]): 1600 nM
- EC50 (ERα [3]; ref Kojima et al 2019): 74 nM
- EC50 (ERα [3]; ref Pelch et al 2019): 320 nM
- Efficacy % (ERα [3]; ref Pelch et al 2019): 115.70%
- EC50 (ERα [3]; ref Reiniger et Oehlmann 2024): 1680 nM
- Efficacy % (ERα [3]; ref Reiniger et Oehlmann 2024): 9.23E+01%
- EC10 (Tox21 assays [4]; ATG_NRF2_ARE_CIS_up, re-evaluated Tox21 data, ref Adamovsky et al 2024): 4.31e-07 M
- EC10 (Tox21 assays [4]; [15]): 2.58e-06 M
- EC10 (Tox21 assays [4]; [16]): 1.15e-06 M
- EC10 (Tox21 assays [4]; [17]): 6.91e-08 M
- EC10 (Tox21 assays [4]; [19]): 1.63E-07
- EC10 (Tox21 assays [4]; [20]): 2.15E-08
- PPARγ transactivation reported in the literature (PPARγ): No agonism was detected
- REPBPA (Tox21 assays [5]; [26]): 17.53
- SRbaseline (Tox21 assays [5]; ATG_NRF2_ARE_CIS_up): 112.9
- REPBPA (Tox21 assays [5]; [21]): 0.94
- SRbaseline (Tox21 assays [5]; [22]): 18.87
- REPBPA (Tox21 assays [5]; [23]): 1.20
- SRbaseline (Tox21 assays [5]; TOX21_CAR_Agonist): 42.52
- REPBPA (Tox21 assays [5]; [24]): 7.88
- SRbaseline (Tox21 assays [5]; TOX21_CAR_Antagonist): 704.7
- REPBPA (Tox21 assays [5]; [19]): 3.63E+00
- REPBPA (Tox21 assays [5]; [20]): 1.63E+00

SMILES: CC(c1ccc(O)cc1)c1ccc(O)cc1 [BPE, 4,4′-Ethylidenbisphenol]
- % Loss [1]: 21%
- EC10 (Tox21 assays [4]; [15]): 1.63e-06 M
- EC10 (Tox21 assays [4]; [16]): 1.04e-05 M
- EC10 (Tox21 assays [4]; [18]): 1.02e-05 M
- EC10 (Tox21 assays [4]; [19]): 1.36E-06
- EC10 (Tox21 assays [4]; [20]): 3.57E-08
- REPBPA (Tox21 assays [5]; [21]): 1.49
- SRbaseline (Tox21 assays [5]; [22]): 76.62
- REPBPA (Tox21 assays [5]; [23]): 0.13
- SRbaseline (Tox21 assays [5]; TOX21_CAR_Agonist): 11.95
- SRbaseline (Tox21 assays [5]; [25]): 12.24
- REPBPA (Tox21 assays [5]; [19]): 4.35E-01
- REPBPA (Tox21 assays [5]; [20]): 6.37E-01

SMILES: CC(C)(c1ccc(O)c(-c2ccccc2)c1)c1ccc(O)c(-c2ccccc2)c1 [BPPH, 2,2-Bis(2-hydroxy-5-biphenylyl)propane]
- Efficacy % (ERα [3]; ref Pelch et al 2019): 27.00%

SMILES: C=CCOc1ccc(S(=O)(=O)c2ccc(O)cc2)cc1 [BPS-MAE, 4-[[4-(Allyloxy)phenyl]sulfonyl]phenol]
- Efficacy % (ERα [3]; ref Pelch et al 2019): 10.30%
- PPARγ transactivation reported in the literature (PPARγ): weaker effects

SMILES: O=S(=O)(c1ccc(O)cc1)c1ccc(OCc2ccccc2)cc1 [BPS-MPE, 4-[4-(benzyloxy)benzenesulfonyl]phenol]
- Efficacy % (ERα [3]; ref Pelch et al 2019): 9.40%
- PPARγ transactivation reported in the literature (PPARγ): significant PPARγ activation

SMILES: Oc1ccc(C2(c3ccc(O)cc3)CCCCC2)cc1 [BPZ, 1,1'-Bis(4-hydroxyphenyl)cyclohexane]
- EC10 (Tox21 assays [4]; [17]): 4.58e-07 M
- EC10 (Tox21 assays [4]; [18]): 1.84e-06 M
- EC10 (Tox21 assays [4]; [20]): 2.65E-08
- REPBPA (Tox21 assays [5]; [24]): 1.19
- SRbaseline (Tox21 assays [5]; TOX21_CAR_Antagonist): 59.87
- SRbaseline (Tox21 assays [5]; [25]): 14.87
- REPBPA (Tox21 assays [5]; [20]): 2.90E+00

SMILES: Cc1ccc(S(=O)(=O)NC(=O)Nc2ccc(Cc3ccc(NC(=O)NS(=O)(=O)c4ccc(C)cc4)cc3)cc2)cc1 [BTUM, 4,4'-Bis(p-tolylsulfonylureido)diphenylmethane]
- PPARγ transactivation reported in the literature (PPARγ): weaker effects

SMILES: CC(C)Oc1ccc(S(=O)(=O)c2ccc(O)cc2)cc1 [D8, 4-((4-Isopropoxyphenyl)sulfonyl)phenol]
- Efficacy % (ERα [3]; ref Pelch et al 2019): 10.30%
- PPARγ transactivation reported in the literature (PPARγ): weaker effects

SMILES: Cc1ccc(S(=O)(=O)NC(=O)Nc2cccc(OS(=O)(=O)c3ccc(C)cc3)c2)cc1 [Pergafast, N-(p-toluenesulfonyl)-N'-(3-(p-toluenesulfonyloxy)phenyl)urea]
- PPARγ transactivation reported in the literature (PPARγ): weaker effects

SMILES: CC(C)(c1cc(Cl)c(O)c(Cl)c1)c1cc(Cl)c(O)c(Cl)c1 [TCBPA, 2,2',6,6'-Tetrachlorobisphenol A]
- EC10 (Tox21 assays [4]; ATG_PPARg_TRANS_up, re-evaluated Tox21 data, ref Adamovsky et al 2024): 2.35e-07 M
- EC10 (Tox21 assays [4]; ATG_hPPARg_XSP2_up, re-evaluated Tox21 data, ref Adamovsky et al 2024): 4e-07 M
- EC10 (Tox21 assays [4]; [18]): 4.02e-07 M
- REPBPA (Tox21 assays [5]; ATG_PPARg_TRANS_up, Relative Effect Potency): 6.78
- SRbaseline (Tox21 assays [5]; ATG_PPARg_TRANS_up): 37.70
- REPBPA (Tox21 assays [5]; ATG_hPPARg_XSP2_up, Relative Effect Potency): 3.23
- SRbaseline (Tox21 assays [5]; ATG_hPPARg_XSP2_up): 22.19
- SRbaseline (Tox21 assays [5]; [25]): 22.07

— paper PMC12392461, “Beyond Estrogenicity: A Comparative Assessment of Bisphenol A and Its Alternatives in In Vitro Assays Questions Safety of Replacements” (Environmental Science & Technology, 2025)
